The values that follow are results of earlier work, collected in US6140347A, “Azetidine, pyrrolidine and piperidine derivatives as 5-HT receptor agonists” (Merck Sharp & Dohme Ltd., priority 1996, dated 2000).

In series [1] the test system is human 5-HT1Dα and 5-HT1Dβ receptor subtypes. Conditions: cf. WO-A-91/17174, Table 1.
The conditions of series [2]: therapeutic doses.

With `CNS(=O)(=O)Cc1ccc2[nH]cc(CCN(C)C)c2c1` [sumatriptan], in series [1], the “discrimination between the human 5-HT1Dα and 5-HT1Dβ receptor subtypes (in words)” value is “barely discriminates”. Further, the “adverse cardiovascular events in humans (in words)” value in series [2] is listed as “certain adverse cardiovascular events”.
